In US20240409557A1, “5,6-FUSED AND 6,6-FUSED BICYCLIC ALCOHOLS AND ETHERS AND COMPOSITIONS FOR USE AS 15-PROSTAGLANDIN DEHYDROGENASE MODULATORS” (AMGEN INC., priority 2023, published 2024):

Key:
[1] = target: T1, human recombinant 15-PGDH (Homo sapiens, UniProt P15428); test: Recombinant 15-PGDH enzymatic inhibition assay (PGDH-Lumi, NADH signal); format: biochemical; settings: for IC50: recombinant 15-PGDH, 15 min pre-incubation, 60 min reaction with PGE2 and NAD+, NADH signal
T1 sequence (P15428 1-266): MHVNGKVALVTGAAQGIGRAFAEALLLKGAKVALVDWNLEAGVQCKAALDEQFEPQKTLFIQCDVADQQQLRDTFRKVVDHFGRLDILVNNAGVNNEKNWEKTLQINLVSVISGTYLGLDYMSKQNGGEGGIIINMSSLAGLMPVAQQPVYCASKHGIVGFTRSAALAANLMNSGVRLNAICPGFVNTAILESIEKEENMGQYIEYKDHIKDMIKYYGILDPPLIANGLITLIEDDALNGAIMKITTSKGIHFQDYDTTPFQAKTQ
Procedure, shortened: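 Buffer 50 mM Tris pH 7.5 with 0.01% Tween-20 and […]; compound, 22 two-fold dilutions, pre-incubated with enzyme 15 min before substrate.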

[2] = test system: DSS-induced colitis in C57BL/6 mice; test: In vivo mouse DSS study - histopathological analysis of colon; settings: versus DSS + vehicle
Procedure: Histopathological analysis was performed on the […] mice from the DSS study described above. Analysis was performed on mice from the B15R, B30R, or B41R groups. Briefly, mouse colon tissues were collected at necropsy, flushed with PBS, manipulated intact into individual modified Swiss rolls, placed into separate tissue cassettes and fixed for approximately 24 hours by immersion in 10% neutral buffered formalin followed by transfer to […]. Fixed tissues were routinely processed, paraffin-embedded, sectioned, mounted on glass slides and hematoxylin and eosin stained. Glass slides were scanned and digital images were accessed for histopathology evaluation. Prior to histopathology assessment, metadata for all digital images reviewed was exported from a digital pathology platform database into an Excel spreadsheet, followed by assignment of each digital image with a random number (greater than 0 and less than 1) using the RAND function in Excel. From smallest to largest random number assigned, each digital image was retrieved for evaluation using only the RTLIMS Inventory Code as the unique identifier for each digital image. Each digital image was individually reviewed without knowledge of treatment group (blinded/masked evaluation), and with the slide label image hidden when viewing digital images. […] Scoring of tissues for DSS-induced colitis was performed using a scoring system and criteria modified and adapted from BolderBioPATH, Inc./Inotiv. Ordinal data (histopathology scores) were analyzed using a non-parametric Kruskal-Wallis one-way analysis of variance test followed by a Dunn's multiple comparison test (GraphPad Prism).
The following scoring systems were used to provide histological scores: […]

[3] = target: T2, 15-PGDH in A549 cells (Homo sapiens, UniProt P15428); test: A549 cellular 15-PGDH assay (PGE2 accumulation, HTRF); format: cell-based; settings: interleukin-stimulated, inhibitor 24 hrs, PGE2 by competitive HTRF, read-out: A549 Cell Assay IC50
T2 construct: endogenous in cells; host or cells: A549
T2 sequence (P15428 1-266): T1 sequence (P15428 1-266)
Procedure, shortened: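 Supernatant PGE2 was quantified by competitive HTRF, in which sample PGE2 blocks FRET between a europium cryptate-labelled antibody and labelled PGE2. It came from A549 epithelial cells induced with IL-13. IC50s were calculated from the inversely proportional signal.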

[4] = test system: DSS-induced colitis in C57BL/6 female mice; test: In vivo mouse DSS study - colon length; settings: for Colon length Mean: oral gavage, day 10; for Recovery % (vs vehicle) / Reduction % (vs naïve): colon length
Procedure: In this study, 12-week-old C57BL/6 female mice (Taconic, the Cambridge City) were supplemented with 2.5% DSS (MP Biomedicals, MW 36,000-50,000) in drinking water for days 0-7, and then switched to normal drinking water beginning on day 7 and continued through day 10. Mice were treated once/twice daily by oral gavage with different compounds of Formula (A) (e.g., B15S, B15R, B30R, or B41R) in different dosing levels or with vehicle solution of 2% HPMC, 1% Tween 80 (w/v) in DI water starting on day 0. Mice were sacrificed on day 10 for assessment of colon length. The DSS-induced model of colitis is a widely used animal model for studying the pathogenesis of and potential treatments for UC, which is a primary form of IBD. DSS water intake causes colonic mucosa injury and erosion, gland loss, and infiltration of proinflammatory immune cells in the colon tissue, followed by mucosal repair and tissue remodeling. This is manifested by a shortened colon, the degree of which correlates well with the severity of mucosal injury in this mouse model of DSS-induced experimental colitis.

SMILES: Cn1cc2cc(-c3ccc4cc([C@H](O)C5CCOCC5)sc4n3)cnc2n1 (single isomer, unassigned) [Compound B15R]
- IC50 [1]: 0.401 nM
- erosion scores ([2]; all doses evaluated): decreased severity
- gland loss scores ([2]; all doses evaluated): decreased severity
- inflammation scores ([2]; all doses evaluated): decreased severity
- sum of histopathology scores ([2]; all doses evaluated): decreased severity
- IC50 [3]: 0.561 nM
- Colon length Mean ([4]; 0.625 mpk, BID): 7.6 cm
- Colon length Mean ([4]; 1.25 mpk, QD): 7.84 cm
- Colon length Mean ([4]; 2.5 mpk, BID): 8.09 cm
- Colon length Mean ([4]; 5 mpk, QD): 7.89 cm
- Recovery % (vs vehicle) ([4]; 0.625 mpk, BID): 42.29%
- Reduction % (vs naïve) ([4]; 0.625 mpk, BID): 14.97%
- Recovery % (vs vehicle) ([4]; 1.25 mpk, QD): 57.64%
- Reduction % (vs naïve) ([4]; 1.25 mpk, QD): 12.28%
- Recovery % (vs vehicle) ([4]; 2.5 mpk, BID): 63.43%
- Reduction % (vs naïve) ([4]; 2.5 mpk, BID): 8.09%
- Recovery % (vs vehicle) ([4]; 5 mpk, QD): 54.80%
- Reduction % (vs naïve) ([4]; 5 mpk, QD): 11.72%
- colon length comparing to vehicle group ([4]; different doses daily): significant improvement of colon length

SMILES: Cn1cc2cc(-c3ccc4cc([C@H](O)C5CC(F)(F)C5)sc4n3)cnc2n1 (single isomer, unassigned) [Compound B30R]
- IC50 [1]: 0.159 nM
- erosion scores ([2]; all doses evaluated): decreased severity
- inflammation scores ([2]; all doses evaluated): decreased severity
- sum of histopathology scores ([2]; all doses evaluated): decreased severity
- gland loss scores ([2]; at 0.625 mg/kg BID, 1.25 mg/kg QD, 2.5 mg/kg BID and 5 mg/kg QD): decreased severity
- IC50 [3]: 0.233 nM
- Colon length Mean ([4]; 0.625 mpk, BID): 7.622 cm
- Colon length Mean ([4]; 1.25 mpk, QD): 7.733 cm
- Colon length Mean ([4]; 2.5 mpk, BID): 7.780 cm
- Colon length Mean ([4]; 5 mpk, QD): 8.360 cm
- Colon length Mean ([4]; 10 mpk, QD): 8.110 cm
- Colon length Mean ([4]; 20 mpk, QD): 8.188 cm
- Recovery % (vs vehicle) ([4]; 0.625 mpk, BID): 56.343%
- Reduction % (vs naïve) ([4]; 0.625 mpk, BID): 9.413%
- Recovery % (vs vehicle) ([4]; 1.25 mpk, QD): 62.467%
- Reduction % (vs naïve) ([4]; 1.25 mpk, QD): 8.093%
- Recovery % (vs vehicle) ([4]; 2.5 mpk, BID): 65.039%
- Reduction % (vs naïve) ([4]; 2.5 mpk, BID): 7.538%
- Recovery % (vs vehicle) ([4]; 5 mpk, QD): 97.008%
- Reduction % (vs naïve) ([4]; 5 mpk, QD): 0.645%
- Recovery % (vs vehicle) ([4]; 10 mpk, QD): 83.228%
- Reduction % (vs naïve) ([4]; 10 mpk, QD): 3.616%
- Recovery % (vs vehicle) ([4]; 20 mpk, QD): 87.5%
- Reduction % (vs naïve) ([4]; 20 mpk, QD): 2.265%
- colon length comparing to vehicle group ([4]; different doses daily): significant improvement of colon length

SMILES: Cn1nnc2cc(-c3ccc4cc([C@H](O)C5CCOCC5)sc4n3)cnc21 (single isomer, unassigned) [Compound B41R]
- IC50 [1]: 0.955 nM
- erosion scores ([2]; all doses evaluated): decreased severity
- inflammation scores ([2]; all doses evaluated): decreased severity
- sum of histopathology scores ([2]; all doses evaluated): decreased severity
- gland loss scores ([2]; at 0.1 mg/kg QD and >0.625 mg/kg QD): decreased severity
- IC50 [3]: 2.16 nM
- colon length comparing to vehicle group ([4]; 2.5 mg/kg and 10 mg/kg daily): significant improvement of colon length
- Colon length Mean ([4]; 0.1 mpk, QD): 7.0 cm
- Colon length Mean ([4]; 0.25 mpk, QD): 6.8 cm
- Colon length Mean ([4]; 0.625 mpk, QD): 7.3 cm
- Colon length Mean ([4]; 2.5 mpk, QD): 7.3 cm
- Colon length Mean ([4]; 10 mpk, QD): 7.9 cm
- Recovery % (vs vehicle) ([4]; 0.1 mpk, QD): 25.46%
- Reduction % (vs naïve) ([4]; 0.1 mpk, QD): 14.63%
- Recovery % (vs vehicle) ([4]; 0.25 mpk, QD): 11.18%
- Reduction % (vs naïve) ([4]; 0.25 mpk, QD): 17.44%
- Recovery % (vs vehicle) ([4]; 0.625 mpk, QD): 40.99%
- Reduction % (vs naïve) ([4]; 0.625 mpk, QD): 11.59%
- Recovery % (vs vehicle) ([4]; 2.5 mpk, QD): 45.34%
- Reduction % (vs naïve) ([4]; 2.5 mpk, QD): 10.73%
- Recovery % (vs vehicle) ([4]; 10 mpk, QD): 82.06%
- Reduction % (vs naïve) ([4]; 10 mpk, QD): 3.52%

SMILES: Cn1cc2cc(-c3ccc4cc([C@@H](O)C5CCOCC5)sc4n3)cnc2n1 [Compound B15S, (S)-(6-(2-methyl-2H-pyrazolo[3,4-b]pyridin-5-yl)thieno[2,3-b]pyridin-2-yl)(tetrahydro-2H-pyran-4-yl)methanol]
- times less potent than B15R in the biochemical assay ([1]; S-enantiomer versus R-enantiomer): around 200
- IC50 [1]: 150 nM
- IC50 [3]: 0.499 nM
- colon length comparing to vehicle group ([4]; 5 mg/kg and 20 mg/kg once daily): significant improvement of colon length
- Colon length Mean ([4]; 0.625 mpk, BID): 6.51 cm
- Colon length Mean ([4]; 1.25 mpk, QD): 6.60 cm
- Colon length Mean ([4]; 2.5 mpk, BID): 6.52 cm
- Colon length Mean ([4]; 5 mpk, QD): 6.90 cm
- Colon length Mean ([4]; 20 mpk, QD): 6.97 cm
- Recovery % (vs vehicle) ([4]; 0.625 mpk, BID): 13.4%
- Reduction % (vs naïve) ([4]; 0.625 mpk, BID): 24.8%
- Recovery % (vs vehicle) ([4]; 1.25 mpk, QD): 17.0%
- Reduction % (vs naïve) ([4]; 1.25 mpk, QD): 23.7%
- Recovery % (vs vehicle) ([4]; 2.5 mpk, BID): 13.7%
- Reduction % (vs naïve) ([4]; 2.5 mpk, BID): 24.7%
- Recovery % (vs vehicle) ([4]; 5 mpk, QD): 29.0%
- Reduction % (vs naïve) ([4]; 5 mpk, QD): 20.3%
- Recovery % (vs vehicle) ([4]; 20 mpk, QD): 31.9%
- Reduction % (vs naïve) ([4]; 20 mpk, QD): 19.5%

SMILES: Cn1cc(-c2ncc3cc([C@]4(O)C[C@@H](C(F)(F)F)C4)sc3n2)cn1 [Compound C120C, cis-1-(2-(1-methyl-1H-pyrazol-4-yl)thieno[2,3-d]pyrimidin-6-yl)-3-(trifluoromethyl)cyclobutanol]
- IC50 [1]: 101 nM
- IC50 [3]: 66.7 nM

SMILES: O[C@]1(c2cc3cnc(-c4cccnc4)nc3s2)C[C@H](C(F)(F)F)C1 [Compound C122C, cis-1-(2-(3-pyridinyl)thieno[2,3-d]pyrimidin-6-yl)-3-(trifluoromethyl)cyclobutanol]
- IC50 [1]: 6.83 nM
- IC50 [3]: 18.3 nM

SMILES: O[C@]1(c2cc3cnc(-c4ccc5nccnc5c4)nc3s2)C[C@H](C(F)(F)F)C1 [Compound C123C, cis-1-(2-(6-quinoxalinyl)thieno[2,3-d]pyrimidin-6-yl)-3-(trifluoromethyl)cyclobutanol]
- IC50 [1]: 0.967 nM
- IC50 [3]: 6.18 nM

SMILES: O[C@]1(c2cc3cnc(-c4cnc5nccn5c4)nc3s2)C[C@H](C(F)(F)F)C1 [Compound C124C, cis-1-(2-(imidazo[1,2-a]pyrimidin-6-yl)thieno[2,3-d]pyrimidin-6-yl)-3-(trifluoromethyl)cyclobutanol]
- IC50 [1]: 2.01 nM
- IC50 [3]: 15.9 nM

SMILES: O[C@]1(c2cc3cnc(-c4ccnnc4)nc3s2)C[C@H](C(F)(F)F)C1 [Compound C126C, cis-1-(2-(4-pyridazinyl)thieno[2,3-d]pyrimidin-6-yl)-3-(trifluoromethyl)cyclobutanol]
- IC50 [1]: 11.6 nM
- IC50 [3]: 29 nM

SMILES: Cn1cc2cc(-c3ccc4ccc(C5(O)CC(C)(C)C5)cc4n3)cnc2n1 [Compound D2, 3,3-dimethyl-1-(2-(2-methyl-2H-pyrazolo[3,4-b]pyridin-5-yl)-7-quinolinyl)cyclobutanol]
- IC50 [1]: 537 nM
- IC50 [3]: 268 nM

SMILES: Cn1cc2cc(-c3ccc4ccc([C@]5(O)C[C@@H](C(F)F)C5)cc4n3)cnc2n1 [Compound D5C, cis-3-(difluoromethyl)-1-(2-(2-methyl-2H-pyrazolo[3,4-b]pyridin-5-yl)-7-quinolinyl)cyclobutanol]
- IC50 [1]: 198 nM
- IC50 [3]: 253 nM

SMILES: Cn1cc2cc(-c3ccc4cc([C@]5(O)C[C@@H](C(F)F)C5)ccc4n3)cnc2n1 [Compound D6C, cis-3-(difluoromethyl)-1-(2-(2-methyl-2H-pyrazolo[3,4-b]pyridin-5-yl)-6-quinolinyl)cyclobutanol]
- IC50 [1]: 1030 nM
- IC50 [3]: 354 nM
